The values below come from article PMC7746742, “The novel rexinoid MSU-42011 is effective for the treatment of preclinical Kras-driven lung cancer” (Scientific Reports, 2020).

Molecules are shown by their SMILES.

The term IC50 denotes the concentration at which inhibition is half-maximal.

In one data set the test system is iNOS. Nature of the data set: iNOS inhibition assay (LPS-induced NO production, Griess reaction). The data set is classed as cell-based, murine. Particulars: Mus musculus; RAW264.7 cells, 0–1000 nM rexinoids, LPS 1 ng/ml 24 h, NO by Griess assay; mean ± SE of 3 experiments; read-out: iNOS suppression IC50. On the procedure: To evaluate the anti-inflammatory effects of the novel rexinoids, we utilized the iNOS suppression assay. Inhibition of iNOS in vitro directly correlates with efficacy in our preclinical model of Kras-driven lung cancer. RAW264.7 macrophage-like cells were treated with 0–1 μM rexinoids and stimulated with 1 ng/mL lipopolysaccharide for 24 h, and then NO was measured in the media.
RAW264.7 cells were plated in 96-well plates (20,000 cells/well). After overnight attachment, cells were treated with twofold serial dilutions (0–1000 nM) of rexinoids. After a 20 min incubation at 37 °C, cells were stimulated with 1 ng/mL LPS for 24 h. NO production was measured in culture medium using the Griess reaction. IC50 values were calculated using GraphPad Prism 8.1.2 software for Windows using a log([nM drug concentration]) vs. response curve fit.

A further data set relates to Kras-driven lung tumors. Nature of the data set: Treatment of established vinyl carbamate-induced lung adenocarcinomas in A/J mice. It is filed as in vivo. The procedure:
All experiments were performed ethically in accordance with the best practices and AAALAC-accredited Standards for the Management of Laboratory Animals at Michigan State University (MSU). These standards include making every effort to minimize suffering. Mice were euthanized by inhalation of carbon dioxide followed by removal of the lungs. All animal protocols were approved by the Institutional Animal Care and Use Committee (IACUC, protocol 201,800,050)) at MSU. At 7 and 8 weeks of age, A/J female mice (Jackson Laboratories) were injected i.p. with vinyl carbamate (Toronto Research Chemicals, 0.32 mg/mouse). Mice were fed a semi-synthetic diet (AIN-93G BioServ, Flemington NJ), beginning one week before initiation with vinyl carbamate and then for 8 weeks after the first injection. The mice were then randomized into groups (n = 15 mice/group) and fed treatment diets (100 mg rexinoid/kg AIN-93G diet or ~ 25 mg/kg body weight) for 12 weeks. Rexinoids were dissolved in a vehicle of 12.5 ml ethanol and 37.5 ml Neobee oil (Spectrum Chemical, Gardena CA) per kg AIN-93G diet. Six total doses of paclitaxel (Fisher; 15 mg/kg i.p.) and then carboplatin (Fisher; 50 mg/kg i.p.) were given every other week, beginning 9 weeks after injection with vinyl carbamate. After 12 weeks on the treatment diets, blood and lungs were harvested. Lungs were inflated with PBS and surface lesions counted. The left lung was fixed in neutral-buffered formalin (NBF), then sample numbers blinded and randomized. Grossly visible lung tumors on the surface of the left lung were counted. The left lung was embedded in paraffin, step-sectioned (6 sections/lung, 200 microns apart) and then stained with Haemotoxylin and Eosin (H&E). The number, size, and histopathology of tumors on the slides were then evaluated as described. The right lobes of the lung were divided into halves. One half was analyzed by flow cytometry and the other half flash frozen (CO2 and ethanol bath) and stored at − 80 °C.
At 11, 15, and 20 weeks after initiation, anesthesia was induced using 2–4% isofluorane in oxygen at 0.8–2 L/min in a chamber and then maintained using 1.5–2% isofluorane in oxygen at 0.8 L/min using a nosecone. Animals were kept on a heating pad or a heated platform while under anesthesia. Fur was removed from the thoracic area using a chemical depilitory (Nair) immediately prior to imaging. A Vevo 2100 (Fujifilm VisualSonics) high-frequency ultrasound with a MS550D 40 MHz transducer was used to image lung tumors.

The nature of data set [1]: Steady state drug levels in plasma after 12 weeks on diet (HPLC-MS). The data set is classed as in vivo, A/J mice. Particulars: A/J, mouse, oral, 100 mg/kg diet for 12 weeks, LC-MS, n = 8, mean ± SE. On the procedure: Blood was collected via cardiac puncture into 1 ml lithium heparin tubes (Greiner Bio-one). Blood was centrifuged at 5000 g for 5 min at 4 °C. Plasma was separated and frozen at − 80 °C until processed as described. Acetonitrile was added to precipitate plasma proteins. Samples were centrifuged at 14,000 g for 5 min, and the supernatant was filtered with a 0.2 µm syringe filter. Each sample was dried overnight and reconstituted in 200 µl of 50:50 methanol:water solution for analysis via HPLC. HPLC was performed on a Quatro Premier instrument with an Ascentis Express C18 column and an Acquity UPLC system. The mobile phase A consisted of 10 mM aq. ammonium acetate and the mobile phase B consisted of methanol. The following gradient was applied 99–5% A (0–4 min), 5% A (4–5.1 min), 5–99% A (5.1–6 min). The flow rate was 0.3 ml/minute, and bexarotene and MSU-42011 were detected at ~ 4.5 min. A standard curve was prepared by processing plasma from untreated animals and spiking the samples with 0.1–3 μM of the appropriate rexinoid then reconstituting the samples.

A short description of data set [2]: Lipid levels in plasma (triglyceride and cholesterol kits). It is filed as in vivo, A/J mice. Particulars: 100 mg/kg diet for 12 weeks, n = 8, mean ± SE. On the procedure:
Triglyceride and cholesterol levels in plasma (n = 8 mice/group) harvested at necropsy were measured using the Triglyceride Quantification Assay Kit (Abcam) or the Cholesterol Quantification Kit (Sigma-Aldrich), respectively, using the recommended protocol supplied by the manufacturer.

A further data set has as its system A549 lung cancer cells. Nature of the data set: MTT proliferation assay. The data set is classed as cell-based, human. Conditions: 0–1 μM rexinoids, 72 hr. The procedure: were treated with 0-1 μM rexinoids for 72 hr. Proliferation was measured using the MTT assay.
MTT Assay. A549 cells were plated in 96-well plates (2,000 cells/well). After overnight attachment, cells were treated with 2 fold dilutions (0-1000 nM rexinoids) for 72 hr. 50 μL 3-(4,5-dimethylthiazol-2-yl)-2,5-diphenyltetrazolium bromide (MTT; Sigma M2128) was added to each well, and cells were incubated at 37 °C for 4 hr. Media was removed and cells were lysed with developing solution (0.04 M HCl in isopropanol). Plates were read at 550 nm.
(also on this page, place not known: 110A549 Cell Proliferation (% DMSO Control) 37°C)

[3] abbreviates: rexinoids 100 mg/kg diet 12 weeks, C/P i.p. x6.
The mark [4] stands for this setting: rexinoids 100 mg/kg diet 12 weeks, C/P i.p. x6, mean ± SE.
Where [5] appears, read: tumor histopathology, 12 weeks of treatment.

Consider `C=C(c1ccc(C(=O)O)cc1)c1cc2c(cc1C)C(C)(C)CCC2(C)C` [Bexarotene], for which, in the data set on iNOS, the IC50 stood at 0.143 ± 0.019 µM. Further, in the data set with Kras-driven lung tumors (100 mg/kg diet, 12 weeks), the “Single agent activity in this model” value is “inactive”. Besides, the “Tumor grades compared to the controls” value in the data set on Kras-driven lung tumors (12 weeks of treatment) is given as “no differences”. Also, the “Average # tumors/slide” value in the data set on Kras-driven lung tumors (rexinoids 100 mg/kg diet 12 weeks, C 50 mg/kg and P 15 mg/kg i.p. x6, mean ± SE) stood at 3.37 ± 0.3. In addition, in the data set with Kras-driven lung tumors (setting [3]), the “Average # tumors/slide (% control)” value was 79%, the “Average tumor burden (% control)” value is listed as 78% and the “Average tumor size (% control)” value is on record as 100%. In the data set with Kras-driven lung tumors (setting [4]), the Average tumor burden stood at 0.72 ± 0.2 mm^3 and the Average tumor size amounted to 0.22 ± 0.04 mm^3. Also, in the data set with Kras-driven lung tumors (setting [5]), the “# High grade tumors” value is on record as 71, the “# Low grade tumors” value is 1 (1%), the “# Medium grade” value is 29 (29%) and the “High grade tumors (% total)” value was found to be 70%. Also, in the data set on Kras-driven lung tumors (setting [5]), the “Low grade tumors (% total)” value is 1 (1%) and the “Medium grade (% total)” value is listed as 29 (29%). This molecule also came in with a concentration at 12 weeks in data set [1] of 0.0812 ± 0.0149 µM. Further, in data set [2], the Cholesterol in plasma was 1.99 ± 0.1ǂ µg/µL and the Triglycerides in plasma is on record as 2.21 ± 0.16ǂ nmol/µL. In data set [2] (listed as bexarotene), this molecule had a Cholesterol in plasma of 1.99 ± 0.1 µg/µL and a Triglycerides in plasma of 2.21 ± 0.16 nmol/µL. The “Growth / proliferation of A549 lung cancer cells” value with A549 lung cancer cells was “do not inhibit proliferation”.
